From patent US12152035B2, “Androgen receptor binding molecule and use thereof” (Industrial Technology Research Institute, priority 2020, dated 2024)

Key:
[1] = tested on: full-length androgen receptor; assay: Western blot: degradation of full-length androgen receptor in CWR22RV1 cells; assay type: cell-based; conditions: overnight
Summary of the method: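 CWR22Rv1 cells (5×10^5 per well) seeded overnight in RPMI with 10% FBS at 37 °C, 5% CO2, then given fresh medium and compound at various concentrations overnight. Lysates analysed by Western blot for full-length AR and AR-V7, with GAPDH as loading control.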

[2] = tested on: CWR22Rv1 cells or VCaP cells; assay: Xenograft tumor growth in SCID mice; assay type: in vivo, Male SCID mice; conditions: 5 or 30 mg/kg, IP, BID
Method: Mice: Male SCID mice (CB17/Icr-Prkdcscid/IcrIcoCrlBltw, 4-6 weeks old, purchased from BioLASCO Taiwan Co., Ilan, Taiwan.)
The cells were harvested when CWR22Rv1 cells or VCaP cells were cultured to exponential growth phase, and then the cells were washed twice with PBS. Then, for CWR22Rv1 cells, 5×10^6 cells were suspended in 100 μL PBS containing 33% Matrigel to form a cell suspension; for VCaP cells, 3×10^6 cells were suspended in 100 μL PBS containing 50% Matrigel to form a cell suspension cell suspension. Then, the above cell suspension was subcutaneously implanted into the right back of male SCID mice with a 25G needle.
After cell inoculation, when the average tumor volume reached […] or the tumor clearly began to grow, the mice were divided into a vehicle-treated group (n=4-8), 5 mg/kg Compound 1 treated group (n=4-8) and 30 mg/kg Compound 1 treatment group (n=4-8), and administered by intraperitoneal injection (IP), twice daily (BID). The vehicle was 10% N-methylpyrrolidone (NMP, N-Methyl-2-pyrrolidone) and 20% castor oil polyoxyethylene ether (Cremophor EL) in PBS buffer solution. Tumor volume and animal body weight were determined three times a week after dosing.
Tumor size was measured with a caliper and converted to tumor volume (cm^3; V) using the formula: V=0.5×[Length×(Width)^2]
Antitumor activity was expressed as tumor growth inhibition (TGI). […]

[3] = tested on: CWR22RV1 cells; assay: Cytotoxicity assay (AlamarBlue, 72 hours); assay type: cell-based; conditions: 72 hours treatment, concentration not given
Summary of the method: (§1)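 CWR22Rv1 or VCaP cells in RPMI-1640 with 10% FBS were seeded at 1×10^4 cells/well. Next day they were treated with compound, test samples at 100, 10, 1 and 0.1 μM, giving 1% DMSO final. After 72 h, AlamarBlue was added for 4 h, fluorescence was read at Ex/Em 560/590 nm, and % cytotoxicity was calculated.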

[4] = tested on: VCaP cells; assay: Cytotoxicity assay (AlamarBlue, 72 hours); assay type: cell-based; conditions: 72 hours treatment, concentration not given
Summary of the method: as §1

[5] = compound concentration 0.1 (unit not given)
[6] = compound concentration 1 (unit not given)
[7] = compound concentration 10 (unit not given)

Q: Which “Degradation ability for full-length androgen receptor (residual rate %)” value (shortened to “Degradation ability … (residual rate %)”) [1, 5] does the source give for `Cc1ncsc1-c1ccc(CNC(=O)[C@@H]2C[C@H](O)CN2C(=O)[C@@H](NC(=O)COCCCCOc2ccc(C3CCN(C4=Nn5c(nnc5C(F)(F)F)CC4)CC3)cc2)C(C)(C)C)cc1` [Compound 1, (2S,4S)-1-((S)-3,3-dimethyl-2-(2-(4-(4-(1-(3-(trifluoromethyl)-7,8-dihydro-[1,2,4]triazolo[4,3-b]pyridazin-6-yl)piperidin-4-yl)phenoxy)butoxy)acetamido)butanoyl)-4-hydroxy-N-(4-(4-methylthiazol-5-yl)benzyl)pyrrolidine-2-carboxamide] here?
A: + (60-80%: +)

Q: What about the “Degradation ability … (residual rate %)” value [1, 6] of the same compound?
A: + (60-80%: +)

Q: And the “Degradation ability … (residual rate %)” value [1, 7]?
A: +++ (<40%: +++)

Q: And the “Increase in tumor size compared to vehicle treatment” value [2]?
A: tends to slow down

Q: And the “Cytotoxicity, CWR22RV1 cells (cell viability %)” value [3]?
A: +++ (<40% : +++)

Q: What about the “Cytotoxicity, VCaP cells (cell viability %)” value [4] of the same compound?
A: +++ (<40% : +++)

Q: Which “Degradation ability … (residual rate %)” value [1, 5] does the source give for `O=C1CCC(N2C(=O)c3cccc(NCC(=O)N4CCC(N5CCC(C#Cc6ccc(C(=O)Nc7ccc(C8CCN(C9=Nn%10c(nnc%10C(F)(F)F)CC9)CC8)cc7)nc6)CC5)CC4)c3C2=O)C(=O)N1` (stereo not drawn) [Compound 51, 5-((1′-((2-(2,6-dioxopiperidin-3-yl)-1,3-dioxoisoindolin-4-yl)glycyl)-[1,4′-bipiperidin]-4-yl)ethynyl)-N-(4-(1-(3-(trifluoromethyl)-7,8-dihydro-[1,2,4]triazolo[4,3-b]pyridazin-6-yl)piperidin-4-yl)phenyl)picolinamide] here?
A: − (>80%; −)

Q: And the “Degradation ability … (residual rate %)” value [1, 6]?
A: − (>80%; −)

Q: What about the “Degradation ability … (residual rate %)” value [1, 7] of the same compound?
A: + (60-80%: +)

Q: What about the “Cytotoxicity, CWR22RV1 cells (cell viability %)” value [3] of the same compound?
A: +++ (<40% : +++)

Q: And the “Cytotoxicity, VCaP cells (cell viability %)” value [4]?
A: +++ (<40% : +++)

Q: Which results are given for `CC1(C)C(NC(=O)c2ccc(C#CC3CCN(C4CCN(C(=O)CNc5cccc6c5C(=O)N(C5CCC(=O)NC5=O)C6=O)CC4)CC3)cc2)C(C)(C)C1OC1=Nn2c(nnc2C(F)(F)F)CC1` (stereo not drawn) [Compound 52, 4-((1′-((2-(2,6-dioxopiperidin-3-yl)-1,3-dioxoisoindolin-4-yl)glycyl)-[1,4′-bipiperidin]-4-yl)ethynyl)-N-((1r,3r)-2,2,4,4-tetramethyl-3-((3-(trifluoromethyl)-7,8-dihydro-[1,2,4]triazolo[4,3-b]pyridazin-6-yl)oxy)cyclobutyl)benzamide]?
A: Degradation ability for full-length androgen receptor (residual rate %) [1, 5]: − (>80%; −); Degradation ability for full-length androgen receptor (residual rate %) [1, 6]: ++ (40-60%: ++); Degradation ability for full-length androgen receptor (residual rate %) [1, 7]: ++ (40-60%: ++); Cytotoxicity, CWR22RV1 cells (cell viability %) [3]: +++ (<40% : +++); Cytotoxicity, VCaP cells (cell viability %) [4]: +++ (<40% : +++)

Q: What does the source list for `Cc1ncsc1-c1ccc(CNC(=O)[C@@H]2C[C@H](O)CN2C(=O)[C@@H](NC(=O)COCCCCOc2ccc(C(=O)NC3C(C)(C)C(Oc4ccc5nnc(C(F)(F)F)n5n4)C3(C)C)cc2)C(C)(C)C)cc1` (stereo partly drawn) [Compound 53, 1-(3,3-dimethyl-2-(2-(4-(4-(((1r,3r)-2,2,4,4-tetramethyl-3-((3-(trifluoromethyl)-[1,2,4]triazolo[4,3-b]pyridazin-6-yl)oxy)cyclobutyl)carbamoyl)phenoxy)butoxy)acetamido)butanoyl)-4-hydroxy-N-(4-(4-methylthiazol-5-yl)benzyl)pyrrolidine-2-carboxamide]?
A: Degradation ability for full-length androgen receptor (residual rate %) [1, 5]: − (>80%; −); Degradation ability for full-length androgen receptor (residual rate %) [1, 6]: +++ (<40%: +++); Degradation ability for full-length androgen receptor (residual rate %) [1, 7]: +++ (<40%: +++); Cytotoxicity, CWR22RV1 cells (cell viability %) [3]: +++ (<40% : +++); Cytotoxicity, VCaP cells (cell viability %) [4]: +++ (<40% : +++)
